From patent US9428503B2, “Imidazo[4,5-c]quinolin-2-one compounds and their use in treating Cancer” (AstraZeneca AB, priority 2014, dated 2016)
Structures can show the parent of a compound that is named as a salt.

Legend:
Assay type in all cases: cell-based
ATM kinase = ATM kinase (Homo sapiens (Human), UniProt Q13315); test: Assay a) ATM cellular potency assay (pATM Ser1981 in X-ray irradiated HT29 cells); details: HT29 cells, pATM Ser1981 after X-ray irradiation; geometric mean where repeated; read-out: Assay a) ATM Cell IC50
ATR kinase = ATR kinase (Homo sapiens (Human), UniProt Q13535); test: Assay b) ATR cellular potency assay (pChk1 Ser345 in HT29 cells treated with 4NQO); details: HT29 cells, pChk1 Ser345 after 4NQO; geometric mean where repeated; read-out: Assay b) ATR Cell IC50
Chain of ATR kinase (Q13535 whole entry): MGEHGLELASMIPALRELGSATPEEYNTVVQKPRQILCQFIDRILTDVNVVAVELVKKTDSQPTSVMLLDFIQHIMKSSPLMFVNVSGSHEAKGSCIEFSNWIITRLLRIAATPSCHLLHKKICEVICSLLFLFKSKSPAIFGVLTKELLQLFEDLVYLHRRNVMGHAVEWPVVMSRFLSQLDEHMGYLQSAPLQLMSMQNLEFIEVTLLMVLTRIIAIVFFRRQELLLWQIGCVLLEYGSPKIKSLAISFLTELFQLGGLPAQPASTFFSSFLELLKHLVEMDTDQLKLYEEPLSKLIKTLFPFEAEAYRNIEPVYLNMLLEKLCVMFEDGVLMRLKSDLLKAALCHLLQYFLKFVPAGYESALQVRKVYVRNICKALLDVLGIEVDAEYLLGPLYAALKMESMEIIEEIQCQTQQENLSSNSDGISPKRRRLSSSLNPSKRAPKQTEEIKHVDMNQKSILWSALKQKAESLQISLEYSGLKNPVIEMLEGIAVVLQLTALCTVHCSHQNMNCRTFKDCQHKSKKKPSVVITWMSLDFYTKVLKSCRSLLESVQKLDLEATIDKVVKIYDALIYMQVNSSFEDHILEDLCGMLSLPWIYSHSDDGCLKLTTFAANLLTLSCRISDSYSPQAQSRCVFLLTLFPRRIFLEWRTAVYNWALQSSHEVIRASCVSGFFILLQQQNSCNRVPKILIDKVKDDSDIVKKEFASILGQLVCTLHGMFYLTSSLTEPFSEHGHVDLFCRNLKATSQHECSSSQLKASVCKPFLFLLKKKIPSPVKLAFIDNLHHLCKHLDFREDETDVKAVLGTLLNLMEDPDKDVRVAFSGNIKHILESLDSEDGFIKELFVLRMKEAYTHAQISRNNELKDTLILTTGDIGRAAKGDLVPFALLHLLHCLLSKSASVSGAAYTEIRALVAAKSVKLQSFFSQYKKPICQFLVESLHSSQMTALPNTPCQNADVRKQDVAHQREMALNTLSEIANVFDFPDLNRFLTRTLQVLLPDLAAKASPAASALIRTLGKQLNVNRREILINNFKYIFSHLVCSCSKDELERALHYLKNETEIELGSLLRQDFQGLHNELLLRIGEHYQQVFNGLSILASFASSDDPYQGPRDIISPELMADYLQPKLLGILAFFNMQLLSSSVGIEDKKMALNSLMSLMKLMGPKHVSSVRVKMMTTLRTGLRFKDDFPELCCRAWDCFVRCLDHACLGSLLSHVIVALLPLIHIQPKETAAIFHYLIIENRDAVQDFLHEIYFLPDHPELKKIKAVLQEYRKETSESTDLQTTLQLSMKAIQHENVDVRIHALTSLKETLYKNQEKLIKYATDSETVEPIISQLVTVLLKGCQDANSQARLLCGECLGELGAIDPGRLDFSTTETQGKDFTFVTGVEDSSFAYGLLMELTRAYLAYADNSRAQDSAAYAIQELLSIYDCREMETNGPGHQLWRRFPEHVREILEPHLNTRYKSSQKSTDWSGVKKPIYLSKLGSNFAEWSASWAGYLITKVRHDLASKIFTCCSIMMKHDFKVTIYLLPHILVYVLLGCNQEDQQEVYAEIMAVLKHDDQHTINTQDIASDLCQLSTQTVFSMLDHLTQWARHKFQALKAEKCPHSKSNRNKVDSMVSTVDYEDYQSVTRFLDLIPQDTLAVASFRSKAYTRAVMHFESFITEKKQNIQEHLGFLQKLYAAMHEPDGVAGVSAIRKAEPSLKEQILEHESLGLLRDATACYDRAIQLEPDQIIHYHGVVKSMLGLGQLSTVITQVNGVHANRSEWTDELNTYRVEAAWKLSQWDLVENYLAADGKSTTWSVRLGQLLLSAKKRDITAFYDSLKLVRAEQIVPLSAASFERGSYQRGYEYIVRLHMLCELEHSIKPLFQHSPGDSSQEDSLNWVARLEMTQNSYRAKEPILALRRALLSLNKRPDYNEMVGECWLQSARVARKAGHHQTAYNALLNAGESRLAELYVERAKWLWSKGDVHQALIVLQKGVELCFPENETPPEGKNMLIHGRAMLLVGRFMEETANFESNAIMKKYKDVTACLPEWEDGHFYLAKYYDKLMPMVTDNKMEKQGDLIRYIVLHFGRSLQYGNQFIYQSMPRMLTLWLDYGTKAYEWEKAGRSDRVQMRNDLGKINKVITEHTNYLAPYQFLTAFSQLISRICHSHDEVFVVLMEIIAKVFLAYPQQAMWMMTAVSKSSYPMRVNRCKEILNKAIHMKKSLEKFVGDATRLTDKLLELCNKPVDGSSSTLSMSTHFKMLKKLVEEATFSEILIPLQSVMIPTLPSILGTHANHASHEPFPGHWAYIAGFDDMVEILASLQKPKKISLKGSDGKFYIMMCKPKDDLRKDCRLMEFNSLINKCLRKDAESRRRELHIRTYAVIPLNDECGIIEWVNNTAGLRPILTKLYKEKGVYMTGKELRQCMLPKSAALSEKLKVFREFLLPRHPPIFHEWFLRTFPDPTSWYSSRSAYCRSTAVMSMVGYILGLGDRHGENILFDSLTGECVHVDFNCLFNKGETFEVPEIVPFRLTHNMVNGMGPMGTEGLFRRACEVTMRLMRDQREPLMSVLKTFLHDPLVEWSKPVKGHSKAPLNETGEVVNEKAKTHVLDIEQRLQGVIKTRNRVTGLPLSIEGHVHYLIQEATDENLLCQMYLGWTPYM
Chain of ATR kinase (Q8WXE1 whole entry partner): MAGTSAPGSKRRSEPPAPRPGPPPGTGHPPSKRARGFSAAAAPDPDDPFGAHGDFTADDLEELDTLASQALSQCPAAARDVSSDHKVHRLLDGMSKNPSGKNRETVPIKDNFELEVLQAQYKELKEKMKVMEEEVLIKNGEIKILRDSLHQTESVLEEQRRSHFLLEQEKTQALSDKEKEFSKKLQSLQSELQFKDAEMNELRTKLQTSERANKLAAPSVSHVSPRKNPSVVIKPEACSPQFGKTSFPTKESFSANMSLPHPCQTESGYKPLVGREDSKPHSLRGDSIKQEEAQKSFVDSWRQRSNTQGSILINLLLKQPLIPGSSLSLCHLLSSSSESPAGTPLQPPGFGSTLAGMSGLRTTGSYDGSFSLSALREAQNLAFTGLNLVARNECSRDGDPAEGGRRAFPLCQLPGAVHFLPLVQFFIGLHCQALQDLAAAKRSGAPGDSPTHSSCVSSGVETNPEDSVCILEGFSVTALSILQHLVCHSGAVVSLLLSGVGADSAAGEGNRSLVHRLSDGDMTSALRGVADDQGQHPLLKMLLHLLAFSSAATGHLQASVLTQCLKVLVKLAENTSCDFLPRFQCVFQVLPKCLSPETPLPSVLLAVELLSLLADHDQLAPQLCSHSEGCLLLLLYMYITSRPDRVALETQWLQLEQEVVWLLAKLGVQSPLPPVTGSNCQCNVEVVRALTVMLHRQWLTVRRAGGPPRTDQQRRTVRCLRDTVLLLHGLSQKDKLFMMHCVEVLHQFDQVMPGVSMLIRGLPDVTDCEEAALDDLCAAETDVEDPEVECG

PI3K-α = PI3K-α (Homo sapiens, UniProt P42336); test: Assay c) PI3K cellular potency assay (phospho-Akt T308 ELISA in BT474 cells); details: BT474 cells, phospho-Akt T308, 2 h; geometric mean where repeated; read-out: Assay c) PI3Kα Cell IC50
Chain of PI3K-α (P42336 whole entry, looked up): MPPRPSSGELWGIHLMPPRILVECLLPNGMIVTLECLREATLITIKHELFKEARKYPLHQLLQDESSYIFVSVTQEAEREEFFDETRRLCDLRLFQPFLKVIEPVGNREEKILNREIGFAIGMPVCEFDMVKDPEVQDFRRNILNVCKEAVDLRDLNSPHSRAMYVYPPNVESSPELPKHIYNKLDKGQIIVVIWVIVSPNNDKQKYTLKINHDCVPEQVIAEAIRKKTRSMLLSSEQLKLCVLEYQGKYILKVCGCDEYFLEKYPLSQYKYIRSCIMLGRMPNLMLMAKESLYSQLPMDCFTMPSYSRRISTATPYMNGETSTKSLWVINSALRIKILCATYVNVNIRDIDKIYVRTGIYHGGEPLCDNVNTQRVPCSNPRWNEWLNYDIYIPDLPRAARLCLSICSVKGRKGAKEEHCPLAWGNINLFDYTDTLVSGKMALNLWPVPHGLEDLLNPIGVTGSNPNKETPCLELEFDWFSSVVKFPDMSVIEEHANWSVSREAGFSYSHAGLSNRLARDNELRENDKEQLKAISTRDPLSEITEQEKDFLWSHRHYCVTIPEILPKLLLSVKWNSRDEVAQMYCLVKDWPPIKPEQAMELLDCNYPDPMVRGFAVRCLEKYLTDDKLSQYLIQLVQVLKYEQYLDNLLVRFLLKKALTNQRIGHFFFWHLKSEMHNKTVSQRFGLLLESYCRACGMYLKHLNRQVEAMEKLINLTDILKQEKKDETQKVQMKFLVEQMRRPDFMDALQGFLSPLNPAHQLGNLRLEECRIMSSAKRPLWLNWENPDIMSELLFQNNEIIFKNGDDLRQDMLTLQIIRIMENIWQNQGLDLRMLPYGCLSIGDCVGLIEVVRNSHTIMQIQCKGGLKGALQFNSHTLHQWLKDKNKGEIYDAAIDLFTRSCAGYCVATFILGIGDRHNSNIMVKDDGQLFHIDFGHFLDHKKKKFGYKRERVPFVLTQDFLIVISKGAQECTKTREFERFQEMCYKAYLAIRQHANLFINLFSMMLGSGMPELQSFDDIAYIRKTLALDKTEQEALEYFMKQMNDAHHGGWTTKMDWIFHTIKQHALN

mTOR = mTOR (Homo sapiens (Human), UniProt P42345); test: Assay d) mTOR cellular potency assay (phospho-AKT Ser473 in MDA-MB-468 cells); details: MDA-MB-468 cells, phospho-AKT Ser473, 2 h; geometric mean where repeated; read-out: Assay d) mTOR Cell IC50

Row | Structure (SMILES) | IC50 (ATM kinase) | IC50 (ATR kinase) | IC50 (PI3K-α) | IC50 (mTOR)
1 | CO[C@@H]1CC[C@@H](n2c(=O)n(C)c3cnc4ccc(-c5ccc(OCCCN6CCCCC6)nc5)cc4c32)C1 [Example 64, 1-[(1R,3R)-3-Methoxycyclopentyl]-3-methyl-8-[6-[3-(1-piperidyl)propoxy]-3-pyridyl]imidazo[4,5-c]quinolin-2-one] | 0.000741 µM | > 24.1 µM | > 30 µM | 12 µM
2 | CN(C)CCCOc1ccc(-c2cc3c(cc2F)ncc2c3n(C3CCOCC3)c(=O)n2C)cn1 [Example 8, 8-[6-(3-dimethylaminopropoxy)pyridin-3-yl]-7-fluoro-3-methyl-1-(oxan-4-yl)imidazo[5,4-c]quinolin-2-one] | 0.000782 µM | > 30 µM | 18.1 µM | 14 µM
3 | CN(C)CCCOc1ccc(-c2cc3c(cc2F)ncc2c3n([C@H]3CCCOC3)c(=O)n2C)c(F)n1 [Example 48, 8-[6-[3-(Dimethylamino)propoxy]-2-fluoro-3-pyridyl]-7-fluoro-3-methyl-1-[(3S)-tetrahydropyran-3-yl]imidazo[4,5-c]quinolin-2-one methanesulfonic acid salt] | 0.00102 µM | > 30 µM | > 9.4 µM | 23 µM
4 | CO[C@H]1C[C@@H](n2c(=O)n(C)c3cnc4ccc(-c5ccc(OCCCN(C)C)nc5)cc4c32)C1 [Example 2, 8-[6-(3-Dimethylaminopropoxy)pyridin-3-yl]-1-(cis-3-methoxycyclobutyl)-3-methylimidazo[4,5-c]quinolin-2-one] | 0.000249 µM | > 29 µM | 1.77 µM | 1.17 µM
5 | Cn1c(=O)n(C2CCOCC2)c2c3cc(-c4ccc(OCCCN5CCCCC5)nc4)ccc3ncc21 [Example 37, 3-methyl-1-(oxan-4-yl)-8-[6-(3-piperidin-1-ylpropoxy)pyridin-3-yl]imidazo[5,4-c]quinolin-2-one] | 0.0012 µM | > 29.4 µM | 20.7 µM | 12.4 µM
6 | CO[C@H]1C[C@@H](n2c(=O)[nH]c3cnc4ccc(-c5ccc(OCCCN(C)C)nc5)cc4c32)C1 [Example 12, 8-[6-(3-dimethylaminopropoxy)pyridin-3-yl]-1-(cis-3-methoxycyclobutyl)-3H-imidazo[4,5-c]quinolin-2-one] | 0.00103 µM | > 25.2 µM | 0.769 µM | 0.54 µM
7 | CN(C)CCCOc1ccc(-c2ccc3ncc4c(c3c2)n(C2CCC2)c(=O)n4C)c(F)n1 [Example 51, 1-cyclobutyl-8-[6-[3-(dimethylamino)propoxy]-2-fluoro-3-pyridyl]-3-methyl-imidazo[4,5-c]quinolin-2-one methanesulfonic acid salt] | 0.000722 µM | > 30 µM | 3.2 µM | 5.38 µM
8 | Cn1c(=O)n([C@H]2CCCOC2)c2c3cc(-c4ccc(OCCCN5CCCCC5)nc4)c(F)cc3ncc21 [Example 47, 7-Fluoro-3-methyl-8-[6-[3-(1-piperidyl)propoxy]-3-pyridyl]-1-[(3S)-tetrahydropyran-3-yl]imidazo[4,5-c]quinolin-2-one methanesulfonic acid salt] | 0.000799 µM | > 30 µM | > 23.5 µM | > 30 µM
9 | Cn1c(=O)n([C@H]2CCCOC2)c2c3cc(-c4ccc(OCCCN5CCCCC5)nc4)ccc3ncc21 [Example 31, 3-methyl-1-[(3S)-oxan-3-yl]-8-[6-(3-piperidin-1-ylpropoxy)pyridin-3-yl]imidazo[5,4-c]quinolin-2-one] | 0.00109 µM | > 30 µM | > 10.9 µM | 19.5 µM
10 | Cn1c(=O)n([C@@H]2CCCOC2)c2c3cc(-c4ccc(OCCCN5CCCC5)nc4)c(F)cc3ncc21 [Example 24, 7-fluoro-3-methyl-8-[6-(3-pyrrolidin-1-ylpropoxy)-3-pyridyl]-1-[(3R)-tetrahydropyran-3-yl]imidazo[4,5-c]quinolin-2-one] | 0.00069 µM | > 18.8 µM | 7.29 µM | > 9.43 µM
11 | CN(C)CCCOc1ccc(-c2ccc3ncc4[nH]c(=O)n(C5CCOCC5)c4c3c2)cn1 [Example 13, 8-[6-(3-dimethylaminopropoxy)pyridin-3-yl]-1-(oxan-4-yl)-3H-imidazo[4,5-c]quinolin-2-one] | 0.00322 µM | > 30 µM | 1.52 µM | 0.248 µM
12 | CN(C)CCCOc1ccc(-c2ccc3ncc4c(c3c2)n([C@@H]2CCOC2)c(=O)n4C)cn1 [Example 44, 8-[6-[3-(Dimethylamino)propoxy]-3-pyridyl]-3-methyl-1-[(3R)-tetrahydrofuran-3-yl]imidazo[4,5-c]quinolin-2-one methanesulfonic acid salt] | 0.00107 µM | > 19.2 µM | 0.56 µM | 2.37 µM
13 | CO[C@H]1C[C@@H](n2c(=O)n(C)c3cnc4cc(F)c(-c5ccc(OCCCN(C)C)nc5F)cc4c32)C1 [Example 19, 8-[6-(3-dimethylaminopropoxy)-2-fluoropyridin-3-yl]-7-fluoro-1-(cis-3-methoxycyclobutyl)-3-methylimidazo[4,5-c]quinolin-2-one] | 0.00262 µM | > 30 µM | > 28 µM | 13.7 µM
14 | Cn1c(=O)n([C@@H]2CCCOC2)c2c3cc(-c4ccc(OCCCN5CCCCC5)nc4)ccc3ncc21 [Example 32, 3-methyl-1-[(3R)-oxan-3-yl]-8-[6-(3-piperidin-1-ylpropoxy)pyridin-3-yl]imidazo[5,4-c]quinolin-2-one] | 0.00178 µM | > 30 µM | 2.94 µM | 6.1 µM
